Measurements published in US8759308B2, “RNAi probes targeting cancer-related proteins” (The University of British Columbia, priority 2002, dated 2014).
d = 2'-deoxy (DNA); r = 2'-OH (RNA)

Tests used:
IGFBP-5 transcript [1] = assay: IGFBP-5 transcript by RT-PCR in primary human bone fibroblasts; format: cell-based; conditions: 50 nM
Experimental: Primary human bone fibroblasts were transfected with 50 nM of the 3 species of bispecific siRNA (BS-1, BS-2 and BS-3) or scrambled control. A vehicle only and an untreated control were was also evaluated. Total RNA was extracted and analyzed by RT-PCR for IGFBP-5 transcript.

IGFBP-5 transcript [2] = assay: IGFBP-5 transcript by RT-PCR in PC3 cells; format: cell-based, human; conditions: 10, 50 and 100 nM
Experimental: PC3 cells were transfected with various doses (10, 50 and 100 nM) of the 3 species of bispecies siRNA (BS-1, BS-2 and BS-3) or scrambled control. A vehicle only control was also evaluated. Total. RNA was extracted and analyzed by RT-PCR for IGFBP-5 transcript.

clusterin transcript [3] = assay: Clusterin transcript by Real Time PCR in PC3 cells; format: cell-based, human; conditions: 10, 50 or 100 nM, two days
Experimental: (§1) PC3 cells were transfected with siRNA at levels of 10, 50 or 100 nM or with 100 nM scrambled control. Two days after transfection, total RNA was extracted and the level of clusterin transcript was quantified by Real Time PCR.

clusterin transcript [4] = assay: Clusterin transcript by Real Time PCR in A549 cells; format: cell-based, human; conditions: 10, 50 or 100 nM, two days
Experimental: as §1
The experiment of Example 9 was repeated using A549 cells in place of PC3 cells.

PC3 cells = assay: PC3 cell viability with siRNA and Taxol, MTT assay; format: cell-based, human; conditions: 25 nM siRNA, then Taxol three days
Experimental: PC3 cells were treated once with 25 nM human clusterin siRNAs (CLU-3 and CLU-5), a scrambled control, or oligoFECTAMINE™ only. After two days of treatment, the medium was replaced with medium containing various concentrations of Taxol (Paclitaxel). After three days of incubation, cell viability was determined by MTT assay. FIG. 11 summarizes the results.

clusterin transcript [5] = assay: Clusterin transcript by Northern blot in PC3 cells; format: cell-based, human; conditions: all doses (10, 50 or 100 nM), two days
Experimental: PC3 cells were treated (1 pulse) with CLU-3 (Seq ID NOs. 5 and 6) or CLU-5 (Seq ID Nos 9 and 10) or with a scrambled control at levels of 10, 50 or 100 nM, or with oligoFECTAMINE™ only. After two days total RNA was extracted and analyzed for clusterin and GADPH by Northern blotting. Densitometric measurement was performed. FIG. 10 presents results of these measurements after normalization to GADPH.

CLU protein = assay: CLU gene silencing by siRNA in OS cells (immunoblotting); format: cell-based, human; conditions: for CLU protein accumulation following exposure to DXR: KH OS and U-2 OS cells, DXR for 24 h in presence of siRNA; for knock-down of secreted CLU (s-CLU) protein form: OS cells; for cellular CLU protein levels / CLU gene silencing: three OS cell lines, 100 nM siRNA duplex, 2-3 days
Excerpt: The human clusterin cDNA was manually scanned in order to identify sequences of the AA(N19)UU (N, any nucleotide) type that fulfill the required criteria for siRNA (Harbourth et al., J Cell Sci 114: 4557-4560 (2001)). Two such sequences with symmetric 2-nt 3′ overhangs, were found 433 (Cl-I) and 644 (Cl-II) nts downstream of the CLU gene transcription initiation codon. Two additional oligonucleotides used targeted a region 1620 nts downstream of the CLU gene transcription initiation codon (Cl-III) and the human CLU transcription initiation site (Cl-V) (see Table). […] Selected RNA oligos were synthesized by Dharmacon Research, Inc. (Lafayette, Colo.), diluted at a 20 μM final concentration in RNasefree ddH2O and stored at −20° C. The Scramble-I™ (Sc-I) (D-1200-20) and Scramble-II™ (Sc-II) (D-1205-20) oligonucleotides used were purchased from Dharmacon Research, Inc.
siRNA transfection of the Cl-I, Cl-II and scrambled RNA duplexes in exponentiary growing OS cells was performed as described (Harbourth et al., Tuschl et al., Genes Dev. 13: 3191-3197 (1999)). Briefly, cells were seeded the day before siRNA transfection in 24-well plates containing 500 μl complete medium and were ˜40-50% confluent during transfection. For the transfection mixture 100 nM of siRNA duplex per well were used. The RNA duplex was diluted in Opti-MEM® I (Gibco Life Technologies, Inc., San Diego, Calif.) serum free medium and transfection efficiency was enhanced by using the Oligofectamine™ reagent (Invitrogen Life technologies Inc., San Diego, Calif.). When cells were treated with both Cl-i and Cl-II oligonucleotides, 100 nM of each siRNA duplex were used. Cell treatment with the siRNA oligonucleotides lasted for 2-3 days.
(§2) Alternatively, in PC3 cells Lipofectin™ (Invitrogen Life technologies Inc., San Diego, Calif.) was used to enhance transfection with the Cl-III and CL-V oligonucleotides. PC3 cells were treated with 10, 50, or 100 nM of the RNA duplexes after pre-incubation with 4 μg/ml of […] reagent in serum free OptiMEM® I for 20 minutes. Four hours after starting the incubation, the medium containing the RNA duplexes and Lipofectin was replaced with standard tissue culture medium. Cells were treated once on day 1 and then harvested 48 h after treatment on day 3. In all cases controls used included: (a) the usage of the Sc-I and Sc-II RNA duplexes and (b) mock transfections in the absence of a nucleic acid (Con-I). CLU gene silencing was assayed by RNA blot analysis, immunoblotting analysis or confocal immunofluorescence.
Efficient silencing of the CLU gene expression in OS cells is achieved using siRNA.

[6] = system: 55 kDa n-CLU protein form; assay: Expression of n-CLU protein form after siRNA; format: cell-based, human; conditions: KH OS and U-2 OS cells
Excerpt: (§3) OS cells sensitization to genotoxic and oxidative stress due to CLU gene silencing is related to activation of the cellular apoptotic machinery. […] We assume that the explanation of this effect relies on our observation that the n-CLU protein is extremely stable.

[7] = system: 49 kDa c-CLU protein form; assay: Expression of c-CLU protein form after siRNA; format: cell-based, human; conditions: KH OS and U-2 OS cells
Excerpt: as §3

CLU mRNA and protein = assay: CLU gene silencing by siRNA in PC3 cells (RNA blot, immunoblot); format: cell-based, human; conditions: sequence-dependent but dose-independent
Experimental: as §2
Effects of CLU gene silencing in PC-3 prostate cancer cells were determined. Having established the significant effects of CLU knock down in OS cells, we then applied CLU siRNA in PC3 human prostate cancer cells. PC3 cells are p53 null (Rohlff, et al., Prostate 37: 51-59 (1998)) and express relatively low endogenous amount of the s-CLU protein form similar to the Sa OS cells. In PC3 cells, apart from employing the Cl-I and Cl-II oligonucleotides, we also tested two additional CLU-specific siRNA oligonucleotides (Cl-III, Cl-V). […]

For “BS-1: IGFBP-2 and -5 bispecific siRNA, double-stranded RNA from Seq. ID NOs. 39 and 40 (chain 1 GGAGCCGGGCUGCGGCUGCTT; chain 2 GCAGCCGCAGCCCGGCUCCTT; sugars from the 5' end r19 d2, backbone not given here)”, the “amount of IGFBP-5 transcript” value (IGFBP-5 transcript [1]) was “reduction in the amount of IGFBP-5 transcript” and the “amount of IGFBP-5 transcript” value (IGFBP-5 transcript [2]) was “reduction in the amount of IGFBP-5 transcript”.

For “BS-2: IGFBP-2 and -5 bispecific siRNA, double-stranded RNA from Seq. ID NOs. 41 and 42 (chain 1 CGUGCGGCGUCUACACCTT; chain 2 GGUGUAGACGCCGCACGTT; sugars from the 5' end r17 d2, backbone not given here)”, the “amount of IGFBP-5 transcript” value (IGFBP-5 transcript [1]) was “reduction in the amount of IGFBP-5 transcript” and the “amount of IGFBP-5 transcript” value (IGFBP-5 transcript [2]) was “reduction in the amount of IGFBP-5 transcript”.

For “BS-3: IGFBP-2 and -5 bispecific siRNA, double-stranded RNA from Seq. ID NOs. 43 and 44 (chain 1 CCAGGGGCUGCGCUGCTT; chain 2 GCAGCGCAGCCCCUGGTT; sugars from the 5' end r16 d2, backbone not given here)”, the “amount of IGFBP-5 transcript” value (IGFBP-5 transcript [1]) was “reduction in the amount of IGFBP-5 transcript” and the “amount of IGFBP-5 transcript” value (IGFBP-5 transcript [2]) was “reduction in the amount of IGFBP-5 transcript”.

In the case of “CLU1: clusterin siRNA, double-stranded RNA from Seq. ID NOs. 1 and 2 (chain 1 CCAGAGCUCGCCCUUCUACTT; chain 2 GUAGAAGGGCGAGCUCUGGTT; sugars from the 5' end r19 d2, backbone not given here)”, the “amount of clusterin transcript” value (clusterin transcript [3]) is reported as “reduction in the amount of clusterin transcript” and the “amount of clusterin transcript” value (clusterin transcript [4]) is reported as “reduction in the amount of clusterin transcript”.

For “CLU3: clusterin siRNA, double-stranded RNA from Seq. ID NOs. 5 and 6 (chain 1 CUAAUUCAAUAAAACUGUCTT; chain 2 GACAGUUUUAUUGAAUUAGTT; sugars from the 5' end r19 d2, backbone not given here)”, the “amount of clusterin transcript” value (clusterin transcript [3]) was “reduction in the amount of clusterin transcript”, the “viable cells with siRNA plus Taxol” value (PC3 cells) was “worked in synergy” and the “amount of clusterin transcript” value (clusterin transcript [4]) was “reduction in the amount of clusterin transcript”. The “amount of clusterin transcript normalized to GADPH” value (clusterin transcript [5]) was “Reduction in the amount of clusterin transcript”.

“Cl-I: clusterin siRNA duplex, SEQ. ID No: 58 and 59; target 433 nts downstream of CLU transcription initiation codon (chain 1 CCAGAGCUCGCCCUUCUACTT; chain 2 GUAGAAGGGCGAGCUCUGGTT; sugars from the 5' end r19 d2, backbone not given here)” was tested, and the “CLU protein accumulation following exposure to DXR” value (CLU protein) was “effectively abolished”, the “effectiveness in silencing the CLU gene, Cl-I compared with Cl-II” value (CLU protein; OS cell lines) was “slightly more effective than Cl-II” and the “knock-down of secreted CLU (s-CLU) protein form” value (CLU protein) was “specifically knock-down”. The “cellular CLU protein levels / CLU gene silencing” value (CLU protein) was “knocking down significantly”, the “effect on putative 55 kDa n-CLU protein form” value [6] was “did not exert any significant effect” and the “effect on 49 kDa c-CLU protein form level” value [7] was “minor effect”.

For “Cl-II: clusterin siRNA duplex, SEQ. ID No: 61 and 62; target 644 nts downstream of CLU transcription initiation codon (chain 1 GUCCCGCAUCGUCCGCAGCTT; chain 2 GCUGCGGACGAUGCGGGACTT; sugars from the 5' end r19 d2, backbone not given here)”, the “CLU protein accumulation following exposure to DXR” value (CLU protein) was “effectively abolished”, the “knock-down of secreted CLU (s-CLU) protein form” value (CLU protein) was “specifically knock-down” and the “cellular CLU protein levels / CLU gene silencing” value (CLU protein) was “knocking down significantly”. The “effect on putative 55 kDa n-CLU protein form” value [6] was “did not exert any significant effect” and the “effect on 49 kDa c-CLU protein form level” value [7] was “minor effect”.

For “Cl-III: clusterin siRNA duplex, SEQ. ID No: 64 and 65; targets region 1620 nts downstream of initiation codon (chain 1 CUAAUUCAAUAAAACUGUCTT; chain 2 GACAGUUUUAUUGAAUUAGTT; sugars from the 5' end r19 d2, backbone not given here)”, the “silencing CLU RNA and protein expression” value (CLU mRNA and protein) was “quite effective”.

“Cl-V: clusterin siRNA duplex targeting the human CLU transcription initiation site; Table 7 Cl-IV, SEQ. ID No: 67 and 68 (chain 1 AUGAUGAAGACUCUGCUGC; chain 2 GCAGCAGAGUCUUCAUCAU; RNA, backbone not given here) [clusterin siRNA duplex targeting the human CLU transcription initiation site; ID No: 67 and 68]” was tested, and the “silencing CLU RNA and protein expression” value (CLU mRNA and protein) was “quite effective”.
